{"source": "paper PMC3408453", "about": "“A Foldamer-Dendrimer Conjugate Neutralizes Synaptotoxic β-Amyloid Oligomers” (PLoS ONE, 2012)", "key": {"Aβ oligomers": {"target": "T1, Aβ oligomers (Homo sapiens, UniProt P05067)", "T1 construct": "a depsipeptide derivative of Aβ(1–42) was utilized; made in house; host or cells: chemical peptide synthesis (no expression host)", "T1 sequence (P05067 672-713 limits assumed)": "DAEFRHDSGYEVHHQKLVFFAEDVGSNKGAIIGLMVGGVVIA", "test": "Precipitation study at 1 µM Aβ oligomer, supernatant Aβ by ELISA", "settings": "1 µM Aβ oligomer, 0.2, 0.5 and 1.0 equivalents of ligand, 15000× g, 3 h", "method": "The extent of precipitation was also tested at an Aβ oligomer concentration of 1 µM. The Aβ oligomer sample was mixed with 0, 0.2, 0.5 and 1.0 equivalents of 7, centrifuged at 15000× g for 3 h and the supernatant was tested for residual Aβ concentration by using a standard ELISA (Figure 11).\nAβ concentrations determined by ELISA in supernatants obtained from samples containing 1 µM Aβ oligomer mixed with 0, 0.2, 0.5 and 1.0 equivalents of 7 and centrifuged at 15000×g (room temperature, 3 h).\n1 μM solution of the Aβ oligomer sample was prepared. This solution was divided to 4×15 ml fractions and 7 was added to three samples in 1, 0.5 or 0.2 μM final concentration, respectively. All the four samples were divided into […] (2×5 ml). One fraction from each sample was centrifuged at 15000×g at RT for 3 hours in a Roth MIKRO 200 Microcentrifuge (Carl-Roth GmbH Karlsruhe, Germany) centrifuge. […]\nDifferent amounts of Aβ (0.0001, 0.0003, 0.001, 0.003, 0.01, 0.03, 0.1, 0.3 µg pro well) were coated in the wells (6 parallels for each concentration) of a 96 well plate. […] Without using a stopping reagent, the absorbance at 370 nm was constantly monitored using a FLUOstar OPTIMA Multidetection Microplate Reader (BMG LABTECH, Offenburg, Germany). Data values were read at the saturation point of the signal curves. The supernatants were analysed according to the concentration calibration."}, "[1]": {"target": "T2, HMW fraction of Aβ oligomers (Homo sapiens, UniProt P05067)", "T2 construct": "a depsipeptide derivative of Aβ(1–42) was utilized; made in house; host or cells: chemical peptide synthesis (no expression host)", "T2 sequence (P05067 672-713 limits assumed)": "as above", "test": "Concentration-dependent dot blot with SEC-separated HMW Aβ oligomer fraction", "type": "binding", "settings": "10 µg ligand spotted, BAM10 1∶500", "method": "ITC measurement for 7 indicated fractional stoichiometry for the low nM binding, which pointed to that the high affinity interaction involves only a fraction of the oligomeric Aβ sample. To localize the strongly binding fraction in the mixture, size exclusion chromatographic (SEC) separation was carried out and the resulting Aβ oligomer fractions were tested with 7 in concentration-dependent dot blot experiments. Two dominant peaks were found in the SEC chromatogram corresponding to the high molecular weight (HMW) and low molecular weight (LMW) components (Figure 7). […] In control experiments, specific and/or preferential binding of Aβ by the membrane itself were ruled out. These findings were in line with the ITC and ELISA results. It could be concluded that 7 preferentially bound to the LMW fraction at low nM concentration and also interacted with the HMW fraction at sub-µM level.\nFigure 7 Selective binding to the LMW Aβ oligomers in the nM range. Size exclusion chromatographic separation of the HMW and LMW fractions of the Aβ oligomeric sample (top panel). Concentration-dependent dot blot experiments performed with the HMW (A) and the LMW fractions (B). The ligand loadings were 10 µg aliquots of 7, and the sequence specific antibody BAM10 (1∶500) was utilized. Lanes within the panels are parallel experiments. […]"}}, "data": [{"smiles": "N=C(N)NCCC[C@@H](CC(=O)N[C@H]1CCCC[C@@H]1C(=O)N[C@H]1CCCC[C@@H]1C(=O)N[C@@H](CC(=O)O)CC(=O)N[C@H]1CCCC[C@@H]1C(=O)NCC(=O)NCC(=O)N[C@@H](CSC1CC(=O)N(CCC(=O)NCCNC(=O)CCN(CCC(=O)NCCNC(=O)CCN2C(=O)CC(SC[C@H](NC(=O)CNC(=O)CNC(=O)[C@H]3CCCC[C@@H]3NC(=O)C[C@H](CC(=O)O)NC(=O)[C@H]3CCCC[C@@H]3NC(=O)[C@H]3CCCC[C@@H]3NC(=O)C[C@H](CCCNC(=N)N)NC(=O)[C@H]3CCCC[C@@H]3N)C(N)=O)C2=O)CCN(CCC(=O)NCCNC(=O)CCN2C(=O)CC(SC[C@H](NC(=O)CNC(=O)CNC(=O)[C@H]3CCCC[C@@H]3NC(=O)C[C@H](CC(=O)O)NC(=O)[C@H]3CCCC[C@@H]3NC(=O)[C@H]3CCCC[C@@H]3NC(=O)C[C@H](CCCNC(=N)N)NC(=O)[C@H]3CCCC[C@@H]3N)C(N)=O)C2=O)CCC(=O)NCCNC(=O)CCN2C(=O)CC(SC[C@H](NC(=O)CNC(=O)CNC(=O)[C@H]3CCCC[C@@H]3NC(=O)C[C@H](CC(=O)O)NC(=O)[C@H]3CCCC[C@@H]3NC(=O)[C@H]3CCCC[C@@H]3NC(=O)C[C@H](CCCNC(=N)N)NC(=O)[C@H]3CCCC[C@@H]3N)C(N)=O)C2=O)C1=O)C(N)=O)NC(=O)[C@H]1CCCC[C@@H]1N", "note": "(some centres unmarked) [Compound 7]", "values": [{"measurement": "Loss of soluble Aβ after centrifugation (supernatant ELISA)", "setting": "Aβ oligomers", "result": "no significant loss of soluble material"}, {"measurement": "Dot blot binding of HMW Aβ oligomer fraction", "setting": "[1]", "result": "stained with just below micromolar affinity"}]}]}
